Reference: patent US12268724B2, “Methods and compositions for the prevention or treatment of Barth Syndrome” (Stealth BioTherapeutics Inc., priority 2013, dated 2025)
Where no end group is shown, it is not given here. [ ]: non-standard residue; d: D form.

What was measured:
[1] = tested on: plasma membrane of several mammalian cell types; conditions: cited from earlier work
TAZ1 = TAZ1 mRNA expression in a dog model of heart failure (real-time PCR of LV tissue); type: in vivo; conditions: dogs with microembolization-induced heart failure, 0.5 mg/kg once daily subcutaneous, three months, saline control 2.25-fold
Experimental: Twelve dogs were subject to coronary microembolization-induced heart failure (LV ejection fraction ˜30%) as described above in Example 1. Subjects were randomized into D-Arg-2′6′-Dmt-Lys-Phe-NH2-treated and control groups for a three-month trial. Subjects received subcutaneous injections of D-Arg-2′6′-Dmt-Lys-Phe-NH2 (0.5 mg/kg once daily, n=6) or saline (Untreated-HF Control, n=6). RNA was prepared from LV tissue of all subjects at the end of the treatment phase and from the LV of six normal subject controls. Levels of TAZ1 mRNA were determined by real-time PCR. Changes in mRNA levels were expressed as fold reduction using the CT Method, with normalization to a […] (GAPDH) internal control.

mitochondria = assay: Electron microscopy of mitochondrial ultrastructure and organization in tissue from cardiac disease subject; type: in vivo
Experimental: A tissue sample from a subject with Barth Syndrome and tissue samples from a subject with cardiac disease was prepared for electron microscopy imaging of the mitochondria using standards known in the art. […] FIG. 3.

mu-opioid receptor = mu-opioid receptor (Homo sapiens, UniProt P35372); assay: Mu-opioid receptor agonist activity; conditions: stated in description, no test described
mu-opioid receptor, sequence (P35372 whole entry, species assumed): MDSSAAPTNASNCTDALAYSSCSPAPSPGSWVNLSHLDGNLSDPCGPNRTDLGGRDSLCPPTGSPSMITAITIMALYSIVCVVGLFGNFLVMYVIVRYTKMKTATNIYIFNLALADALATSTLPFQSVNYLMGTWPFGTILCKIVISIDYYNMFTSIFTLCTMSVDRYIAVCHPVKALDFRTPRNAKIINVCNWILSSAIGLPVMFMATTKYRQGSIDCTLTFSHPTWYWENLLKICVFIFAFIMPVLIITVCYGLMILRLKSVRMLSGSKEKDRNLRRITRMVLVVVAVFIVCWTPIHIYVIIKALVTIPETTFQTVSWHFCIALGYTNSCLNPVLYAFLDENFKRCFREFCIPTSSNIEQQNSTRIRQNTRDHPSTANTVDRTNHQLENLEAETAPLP

| Substance | penetration of the plasma membrane [1] | decrease in TAZ1 mRNA relative to normal subjects (fold reduction, CT Method, normalized to GAPDH) (TAZ1) [fold] | ultrastructure of the mitochondria (electron microscopy) (mitochondria; cardiac disease subject treated with an effective amount, FIG. 4A vs 4B) | organization of the mitochondria (electron microscopy) (mitochondria; tissue from treated vs not treated cardiac disease subject, FIGS. 5A-5B) | mu-opioid receptor agonist activity (mu-opioid receptor) |
| --- | --- | --- | --- | --- | --- |
| 2′, 6′-Dmt-D-Arg-Phe-Lys-NH2 | readily penetrates the plasma membrane of several mammalian cell types in an energy-independent manner |  |  |  |  |
| D-Arg-2′6′-Dmt-Lys-Phe-NH2 |  | 1.23 | ameliorated the abnormal features of the ultrastructure of the mitochondria | improved organization of the mitochondria | does not have mu-opioid receptor agonist activity |
| F[dR]FK-NH2 |  |  |  |  | does not have mu-opioid receptor agonist activity |
| Tyr-D-Arg-Phe-Lys-NH2 |  |  |  |  | has mu-opioid receptor agonist activity |
